Measured values as given in ChEMBL document CHEMBL6103648, “AI-Driven Discovery of Highly Specific and Efficacious hCES2A Inhibitors for Ameliorating Irinotecan-Triggered Gut Toxicity” (J Med Chem, 2025).
Converted amounts (≈) assume the structure as drawn. The source made the active and inactive calls. The rule behind the calls is not given here.

Experiments:
[1] = Sub-acute toxicity in C57BL/6J mouse assessed as change in UREA level at 100 mg/kg/day, po treated for 14 days consecutively; format: organism-based; details: in vivo, 336 h, time 14 day
[2] = Apparent permeability across apical to basal side in human Caco-2 cells at 25 uM incubated for 120 mins by UPLC-MS/MS analysis; format: ADME, cell-based
[3] = Permeability across basal to apical side in human Caco-2 cells assessed as cumulative penetration amount at 50 uM incubated for 120 mins by UPLC-MS/MS analysis; format: ADME, cell-based; details: caco-2, 2 h
[4] = Drug distribution in serum of C57BL/6J mouse at 100 mg/kg, po administered as single dose measured for 0.5 to 3 hrs by UHPLC-Q-Orbitrap HRMS analysis; format: ADME, organism-based; details: in vivo, time 0.5-3 hrs
[5] = Sub-acute toxicity in C57BL/6J mouse assessed as abnormality in heart at 100 mg/kg/day, po treated for 14 days consecutively by H and E staining based analysis; format: organism-based; details: in vivo, 336 h, time 14 day
Mus musculus [6] = test: Inhibition of irinotecan-triggered gut toxicity in C57BL/6J mouse bearing tumor cells assessed as decrease in SN38 level in colon tissue at 25 to 50 mg/kg/day, po treated for 14 days; format: functional, organism-based; details: dose 25-50 mg/kg/day, time 14.0 day
Mus musculus [7] = test: Inhibition of irinotecan-triggered gut toxicity in C57BL/6J mouse bearing tumor cells assessed as decrease in serum AST level at 25 to 50 mg/kg/day, po treated for 14 days; format: functional, organism-based; details: dose 25-50 mg/kg/day, time 14.0 day
[8] = Drug distribution in jejunum of C57BL/6J mouse at 100 mg/kg, po administered as single dose measured for 0.5 to 3 hrs by UHPLC-Q-Orbitrap HRMS analysis; format: ADME, organism-based; details: in vivo, time 0.5-3 hrs
[9] = target: T1, Palmitoleoyl-protein carboxylesterase NOTUM (Homo sapiens, UniProt Q6P988); test: Inhibition of human Notum using OPTS as substrate preincubated for 1 min followed by substrate addition by fluorescence based assay
T1 sequence (Q6P988 whole entry): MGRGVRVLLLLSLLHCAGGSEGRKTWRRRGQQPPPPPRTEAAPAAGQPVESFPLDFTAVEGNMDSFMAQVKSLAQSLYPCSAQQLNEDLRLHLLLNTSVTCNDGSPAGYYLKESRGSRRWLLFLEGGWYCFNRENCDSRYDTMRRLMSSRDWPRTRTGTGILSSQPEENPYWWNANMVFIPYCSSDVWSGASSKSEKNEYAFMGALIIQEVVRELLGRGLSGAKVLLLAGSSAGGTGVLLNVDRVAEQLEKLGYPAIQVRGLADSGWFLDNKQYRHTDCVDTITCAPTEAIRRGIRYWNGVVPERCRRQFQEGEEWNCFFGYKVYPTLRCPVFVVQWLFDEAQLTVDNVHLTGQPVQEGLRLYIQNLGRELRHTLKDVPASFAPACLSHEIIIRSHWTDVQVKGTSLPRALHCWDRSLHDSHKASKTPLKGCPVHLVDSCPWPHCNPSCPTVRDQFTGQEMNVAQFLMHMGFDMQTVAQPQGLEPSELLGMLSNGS

[10] = Drug distribution in duodenum of C57BL/6J mouse at 100 mg/kg, po administered as single dose measured for 0.5 to 3 hrs by UHPLC-Q-Orbitrap HRMS analysis; format: ADME, organism-based; details: in vivo, time 0.5-3 hrs
[11] = Permeability across basal to apical side in human Caco-2 cells assessed as cumulative penetration amount at 25 uM incubated for 120 mins by UPLC-MS/MS analysis; format: ADME, cell-based; details: caco-2, 2 h
[12] = Sub-acute toxicity in C57BL/6J mouse assessed as abnormality in spleen at 100 mg/kg/day, po treated for 14 days consecutively by H and E staining based analysis; format: organism-based; details: in vivo, 336 h, time 14 day
[13] = Apparent permeability across basal to apical side in human Caco-2 cells at 25 uM incubated for 120 mins by UPLC-MS/MS analysis; format: ADME, cell-based
Cytochrome P450 3A4 = Cytochrome P450 3A4 (Homo sapiens, UniProt P08684); test: Inhibition of CYP3A4 in human liver microsomes using testosterone as substrate upto 10 uM; format: ADME, Microsome
Cytochrome P450 2E1 = Cytochrome P450 2E1 (Homo sapiens, UniProt P05181); test: Inhibition of CYP2E1 in human liver microsomes using chlorzoxazone as substrate upto 10 uM; format: ADME, Microsome
[14] = Sub-acute toxicity in C57BL/6J mouse assessed as abnormality in kidney at 100 mg/kg/day, po treated for 14 days consecutively by H and E staining based analysis; format: organism-based; details: in vivo, 336 h, time 14 day
[15] = Sub-acute toxicity in C57BL/6J mouse assessed as abnormality in lung at 100 mg/kg/day, po treated for 14 days consecutively by H and E staining based analysis; format: organism-based; details: in vivo, 336 h, time 14 day
Mus musculus [16] = test: Inhibition of irinotecan-triggered gut toxicity in C57BL/6J mouse bearing tumor cells assessed as increase in ZO-1 level in colon tissue at 25 to 50 mg/kg/day, po treated for 14 days by immunofluorescence based analysis; format: functional, organism-based; details: dose 25-50 mg/kg/day, time 14.0 day
Homo sapiens = species on record: Homo sapiens; test: Inhibition of human CES2A assessed as decrease in residual activity upto 1.6 nM; details: time <= 30.0 min
[17] = Permeability across apical to basal side in human Caco-2 cells assessed as cumulative penetration amount at 100 uM incubated for 120 mins by UPLC-MS/MS analysis; format: ADME, cell-based; details: caco-2, 2 h
Mus musculus [18] = test: Inhibition of irinotecan-triggered gut toxicity in C57BL/6J mouse bearing tumor cells assessed as intact structures in colon tissue at 25 to 50 mg/kg/day, po treated for 14 days by H and E staining based analysis; format: functional, organism-based; details: dose 25-50 mg/kg/day, time 14.0 day
[19] = Permeability across apical to basal side in human Caco-2 cells assessed as cumulative penetration amount at 50 uM incubated for 120 mins by UPLC-MS/MS analysis; format: ADME, cell-based; details: caco-2, 2 h
[20] = Inhibition of human CES2A incubated for 3 mins
Mus musculus [21] = test: Inhibition of irinotecan-triggered gut toxicity in C57BL/6J mouse bearing tumor cells assessed as decrease in TNF-alpha level in colon tissue administered orally treated for 14 days; format: functional, organism-based; details: dose 25-50 mg/kg/day, route po, time 14.0 day
Mus musculus [22] = test: Inhibition of irinotecan-triggered gut toxicity in C57BL/6J mouse bearing tumor cells assessed as increase in occludin level in colon tissue at 25 to 50 mg/kg/day, po treated for 14 days by immunofluorescence based analysis; format: functional, organism-based; details: dose 25-50 mg/kg/day, time 14.0 day
[23] = Sub-acute toxicity in C57BL/6J mouse assessed as change in ALT level at 100 mg/kg/day, po treated for 14 days consecutively; format: organism-based; details: in vivo, 336 h, time 14 day
[24] = Drug distribution in deep organs of C57BL/6J mouse at 100 mg/kg, po administered as single dose measured for 0.5 to 3 hrs by UHPLC-Q-Orbitrap HRMS analysis; format: ADME, organism-based, Deep organ; details: in vivo, time 0.5-3 hrs
[25] = Sub-acute toxicity in C57BL/6J mouse assessed as abnormality in stomach at 100 mg/kg/day, po treated for 14 days consecutively by H and E staining based analysis; format: organism-based; details: in vivo, 336 h, time 14 day
[26] = Sub-acute toxicity in C57BL/6J mouse assessed as abnormality in gastrointestinal tract at 100 mg/kg/day, po treated for 14 days consecutively by H and E staining based analysis; format: organism-based; details: in vivo, 336 h, time 14 day
[27] = Inhibition of human CES1A using NLMe as substrate incubated for 3 mins by chemiluminescence analysis
[28] = Aqueous solubility of compound by UPLC-MS/MS analysis; format: physicochemical; details: buffer
[29] = Inhibition of human CES2A incubated for 33 mins

Sequence of Cytochrome P450 2E1 (P05181 whole entry): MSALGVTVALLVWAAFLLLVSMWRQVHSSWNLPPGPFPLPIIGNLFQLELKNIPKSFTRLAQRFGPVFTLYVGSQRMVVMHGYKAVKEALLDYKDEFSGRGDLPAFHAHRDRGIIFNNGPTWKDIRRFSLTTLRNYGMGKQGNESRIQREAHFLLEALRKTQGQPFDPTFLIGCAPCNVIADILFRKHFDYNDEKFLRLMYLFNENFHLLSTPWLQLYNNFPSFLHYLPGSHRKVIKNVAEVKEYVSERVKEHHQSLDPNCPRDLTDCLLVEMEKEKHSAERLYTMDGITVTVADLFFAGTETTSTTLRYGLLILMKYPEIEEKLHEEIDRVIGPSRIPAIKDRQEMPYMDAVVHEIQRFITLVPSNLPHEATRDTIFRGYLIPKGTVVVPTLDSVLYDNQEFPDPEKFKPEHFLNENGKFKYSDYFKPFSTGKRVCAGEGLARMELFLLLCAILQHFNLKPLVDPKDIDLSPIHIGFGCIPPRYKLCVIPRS
Sequence of Cytochrome P450 3A4 (P08684 whole entry): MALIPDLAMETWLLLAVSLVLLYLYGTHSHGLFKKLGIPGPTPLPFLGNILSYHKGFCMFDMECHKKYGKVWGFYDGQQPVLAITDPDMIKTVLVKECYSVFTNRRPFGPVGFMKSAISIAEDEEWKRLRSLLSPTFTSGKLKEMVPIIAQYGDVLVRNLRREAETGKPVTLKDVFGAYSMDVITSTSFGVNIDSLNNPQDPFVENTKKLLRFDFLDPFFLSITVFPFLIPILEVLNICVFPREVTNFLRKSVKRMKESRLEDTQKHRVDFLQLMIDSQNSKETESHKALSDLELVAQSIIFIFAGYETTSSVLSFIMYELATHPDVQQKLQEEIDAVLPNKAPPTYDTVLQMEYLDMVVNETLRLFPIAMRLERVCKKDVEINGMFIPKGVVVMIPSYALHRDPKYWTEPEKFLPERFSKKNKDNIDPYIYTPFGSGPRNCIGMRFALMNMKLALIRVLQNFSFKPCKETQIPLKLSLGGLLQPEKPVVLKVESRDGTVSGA

Q: With `CCN(C)C(=O)Oc1ccc(C(=O)N2CCC(Cc3ccccc3)CC2)cc1OC` as the compound, how does the Activity [1] read?
A: The Activity was “Non-toxic”.

Q: What about the Papp A→B at 2 h, 25 µM [2] of the same compound?
A: Its Papp A→B at 2 h, 25 µM is 157 nm/s.

Q: And the Activity [3]?
A: Its Activity is 4.23 µM.

Q: What about the Drug uptake [4] of the same compound?
A: Its Drug uptake is “Not_active”.

Q: And the Activity [5]?
A: Its Activity is “Non-toxic”.

Q: What about the inhibition (Mus musculus [6]) of the same compound?
A: Its inhibition is “Active”.

Q: And the inhibition (Mus musculus [7])?
A: Its inhibition is “Active”.

Q: And the Drug uptake [8]?
A: The Drug uptake was “Active”.

Q: And the IC50 [9]?
A: The IC50 was greater than 10000 nM.

Q: What about the Drug uptake [10] of the same compound?
A: Its Drug uptake is “Active”.

Q: What about the Activity [11] of the same compound?
A: Its Activity is 2.03 µM.

Q: And the Activity [12]?
A: The Activity was “Non-toxic”.

Q: And the Papp B→A at 2 h, 25 µM [13]?
A: Its Papp B→A at 2 h, 25 µM is 101 nm/s.

Q: And the “inhibition (INH)” value (Cytochrome P450 3A4)?
A: Its value is “Not_active”.

Q: And the “inhibition (INH)” value (Cytochrome P450 2E1)?
A: The value was “Not_active”.

Q: And the Activity [14]?
A: The Activity was “Non-toxic”.

Q: What about the Activity [15] of the same compound?
A: Its Activity is “Non-toxic”.

Q: What about the inhibition (Mus musculus [16]) of the same compound?
A: Its inhibition is “Active”.

Q: And the inhibition (Homo sapiens)?
A: The inhibition was “Time-dependent-effect”.

Q: What about the Activity [17] of the same compound?
A: The Activity was 9.47 µM.

Q: What about the inhibition (Mus musculus [18]) of the same compound?
A: The inhibition was “Active”.

Q: What about the Activity [19] of the same compound?
A: Its Activity is 6.31 µM.

Q: And the IC50 [20]?
A: Its IC50 is 0.69 nM.

Q: And the inhibition (Mus musculus [21])?
A: The inhibition was “Active”.

Q: What about the inhibition (Mus musculus [22]) of the same compound?
A: The inhibition was “Active”.

Q: What about the Activity [23] of the same compound?
A: The Activity was “Non-toxic”.

Q: What about the Drug uptake [24] of the same compound?
A: Its Drug uptake is “Not_active”.

Q: What about the Activity [25] of the same compound?
A: The Activity was “Non-toxic”.

Q: What about the Activity [26] of the same compound?
A: The Activity was “Non-toxic”.

Q: What about the IC50 [27] of the same compound?
A: Its IC50 is 4400 nM.

Q: And the solubility [28]?
A: The solubility was 0.032 mg/mL (≈ 78 µM).

Q: And the IC50 [29]?
A: Its IC50 is 0.04 nM.
